According to publication PMC4356558, “Prediction of Chemical Respiratory Sensitizers Using GARD, a Novel In Vitro Assay Based on a Genomic Biomarker Signature” (PLoS ONE, 2015):
In brackets after ≈: the same amount, converted by molar mass. Where two headings read alike, the source gives them in different places.

Experiments:
[1] = test system: GRPS genomic biomarker signature (389 transcripts) in MUTZ-3 cells; experiment: GARD assay with GARD Respiratory Prediction Signature (GRPS), SVM classification of respiratory sensitizers
Experimental: (§1) The human acute myelomonocytic leukemia cell line MUTZ-3[68, 69] was obtained from Leibniz-Institut DSMZ-Deutsche Sammlung von Mikroorganismen und Zellkulturen (DSMZ, Braunschweig, Germany). Maintenance of cells, chemical stimulation of MUTZ-3 and all subsequent isolation of mRNA and preparation of cDNA were performed as previously described. In short, a phenotypic control of MUTZ-3 was performed using flow cytometry prior to chemical stimulation to ensure cells were in an immature state. The following FITC-conjugated mouse monoclonal antibodies (mAbs) were used: CD1a (DakoCytomation, Glostrup, Denmark), CD34, CD86, HLA-DR, IgG1 (BD Biosciences, Franklin Lakes, NJ). The following PE-conjugated mouse monoclonal antibodies were used: CD14 (DakoCytomation), CD54, CD80, IgG1 (BD Biosciences). Cell viability was determined using Propidium Iodide (BD Biosciences) staining. Samples were run on FACSCanto II instrument. Data was acquired using FACS Diva software (BD Biosciences) and analyzed using FCS Express V4 (De Novo Software, Los Angeles, CA). Gating was performed to exclude cell debris and non-viable cells based on forward- and side-scattering properties and quadrants established using isotype-controls. During chemical exposure, cells were seeded at 200.000 cells/ml in 24-well plates and exposed to chemical compound at the GARD input concentration. Stimulated cells were harvested after 24h incubation at 37 °C, 5% CO2 and RNA was isolated with TRIzol reagent (Life Technologies, Carlsbad, CA) using standardized protocols provided by the manufacturer. In parallel, a control of the maturity state of the cells was performed by flow cytometric analysis of CD86. Preparation of cDNA and hybridization, washing and scanning of the Human Gene 1.0 ST Arrays (Affymetrix, Santa Clara, CA, USA) was performed, according to standardized protocols provided by the manufacturer (Affymetrix).
Gene expression data obtained from the Human Gene 1.0 ST Arrays were normalized using the Single-Channel array normalization (SCAN) algorithm, and potential batch effects between different set of experiments were adjusted using the ComBat empirical bayes method. Normalizations and batch adjustments were performed in R statistical software using the open software Bioconductor v2.14 [73] with the additional software packages SCAN.UPC [70] and sva. Normalized data was imported into Qlucore Omics Explorer 3.0 (Qlucore AB, Lund, Sweden) and visualized using Principal Component Analysis (PCA). Predictors were selected from a one-way ANOVA p-value filtration, using false discovery rate (FDR) to adjust for multiple hypothesis testing, comparing respiratory sensitizers and non-respiratory sensitizers. […] The Backward Elimination algorithm was modified to minimize the Kullback-Leibler error [53] rather than maximizing the Area Under the Receiver Operating Characteristic (AUC ROC), in order to enable signature optimization in cases where the AUC ROC reaches 1.0. […] The script for Backwards Elimination was programmed in R, with the additional package e1071 [78]. The method by which the predictive genomic biomarker signature was established was validated using cross-validation based on Support Vector Machines (SVM), based on a linear kernel, as described previously. In short, the training dataset was randomly divided into a new cross-validation training dataset comprising 70% of the stimulations, and a cross-validation test dataset comprising 30% of the stimulations. In addition, care was taken to maintain the same proportion between respiratory sensitizers and non-respiratory sensitizers as in the complete training dataset. A new predictive genomic biomarker signature was identified from the cross-validation training dataset using one-way ANOVA p-value filtration as described above.

MUTZ-3 cells = experiment: Chemical cytotoxicity, concentration yielding 90% relative viability (Rv90), propidium iodide staining
Source text: A panel of 32 reference chemicals comprising a selection of 10 well characterized respiratory sensitizers and 22 non-respiratory sensitizers, collectively termed the training dataset, were used for cell stimulations in order to establish the predictive genomic biomarker signature. […] Additionally, a panel of 25 chemicals, including 6 respiratory sensitizers and 19 non-respiratory sensitizers, collectively termed the independent test dataset, were used for cell stimulations in order to form an independent testset for validation of the identified predictive genomic biomarker signature. The […] comprised both control chemicals, included during the training of the model, as well as chemicals previously unseen during training of the model. […] All chemicals were purchased from Sigma-Aldrich (St. Louis, MO, USA). Chemicals were dissolved and diluted into GARD input concentration in either water or DMSO prior to stimulation of cells. For chemicals dissolved in DMSO, the in-well concentration of DMSO was 0.1%. Monitoring of chemical cytotoxicity and establishment of GARD input concentration for each chemical compound was performed as previously described. […] Toxic compounds were used at a concentration yielding 90% relative viability (Rv90). The criterion that was first met determined the GARD input concentration for each compound.
as §1

[2] = test system: CD86 expression of MUTZ-3 cells; experiment: CD86 cell surface expression of MUTZ-3 cells following chemical stimulation, flow cytometry; format: cell-based, human; conditions: 24 h stimulation at GARD input concentration; students t-test, p<0.05
[3] = Max solubility of chemicals in cell media (establishment of GARD input concentration); conditions: for Max solubility: dissolved in vehicle (water or DMSO); for solubility: aqueous buffer, kinetic from dmso stock
physchem = conditions: aqueous buffer, kinetic from dmso stock
[4] = test system: GPS genomic biomarker signature (200 genes) in MUTZ-3 cells
Source text: The GARD assay is based on measurements of transcriptional levels of a genomic biomarker signature (GARD Prediction Signature, or GPS) comprising 200 genes in the myeloid human cell line MUTZ-3 [43–45] using transcriptome-wide DNA microarray technology.
The human acute myelomonocytic leukemia cell line MUTZ-3[68, 69] was obtained from Leibniz-Institut DSMZ-Deutsche Sammlung von Mikroorganismen und Zellkulturen (DSMZ, Braunschweig, Germany). Maintenance of cells, chemical stimulation of MUTZ-3 and all subsequent isolation of mRNA and preparation of cDNA were performed as previously described [41, 42]. In short, a phenotypic control of MUTZ-3 was performed using flow cytometry prior to chemical stimulation to ensure cells were in an immature state. The following FITC-conjugated mouse monoclonal antibodies (mAbs) were used: CD1a (DakoCytomation, Glostrup, Denmark), CD34, CD86, HLA-DR, IgG1 (BD Biosciences, Franklin Lakes, NJ). The following PE-conjugated mouse monoclonal antibodies were used: CD14 (DakoCytomation), CD54, CD80, IgG1 (BD Biosciences). Cell viability was determined using Propidium Iodide (BD Biosciences) staining. Samples were run on FACSCanto II instrument. Data was acquired using FACS Diva software (BD Biosciences) and analyzed using FCS Express V4 (De Novo Software, Los Angeles, CA). […]

[5] = replicate stimulation 1, 24 h at GARD input concentration, independent test dataset, > 0 = respiratory sensitizer
[6] = replicate stimulation 2, 24 h at GARD input concentration, independent test dataset, > 0 = respiratory sensitizer
[7] = replicate stimulation 3, 24 h at GARD input concentration, independent test dataset, > 0 = respiratory sensitizer
[8] = respiratory sensitizer if any of replicate stimulations has SVM decision value > 0
[9] = concentration yielding 90% relative viability, MUTZ-3, training dataset
[10] = reference compounds of the training dataset

Row | Structure (SMILES) | SVM decision value 1 [1, 5] | SVM decision value 2 [1, 6] | SVM decision value 3 [1, 7] | Classification, Pos if 1 sample > 0 [1, 8] | also measured
1 | CCCCO [1-Butanol] | – | – | – | – | Classification, Pos if 1 sample > 0 [1]: Sensitizer; SVM decision value 1 [1]: −0.32; SVM decision value 2 [1]: 0.12
2 | O=[N+]([O-])c1ccc(Cl)c([N+](=O)[O-])c1 [2,4-dinitrochlorobenzene] | −1.66 | −1.18 | −1.90 | Non-sensitizer | Rv90 (MUTZ-3 cells; human): 4 µM
3 | Nc1ccccc1O [2-Aminophenol] | – | – | – | – | Rv90 (MUTZ-3 cells; human): 100 µM; Up-regulation of CD86 in comparison to unstimulated cells [2]: up-regulation of CD86 was also observed
4 | C=CC(=O)OCCO [2-Hydroxyethyl acrylate] | – | – | – | – | Rv90 (MUTZ-3 cells; [9]): 100 µM
5 | Sc1nc2ccccc2s1 [2-mercaptobenzothiazole] | −0.44 | −0.43 | −0.57 | – | –
6 | [Cl][Pt-2]([Cl])([Cl])([Cl])([Cl])[Cl].[NH4+].[NH4+] [Ammonium hexachloroplatinate] | – | – | – | – | Max solubility [3, 10]: 35 µM; Up-regulation of CD86 in comparison to unstimulated cells [2]: statistically significant
7 | O=Cc1ccccc1 [Benzaldehyde] | −0.79 | −0.87 | −0.70 | Non-sensitizer | –
8 | Cc1ccc(S(=O)(=O)NCl)cc1 [Chloramine T] | 0.52 | 0.59 | – | Sensitizer | –
9 | Clc1ccccc1 [Chlorobenzene] | −1.03 | −0.76 | −1.15 | Sensitizer | SVM decision value 4 ([1]; replicate stimulation 4, 24 h at GARD input concentration, independent test dataset, > 0 = respiratory sensitizer): 0.24; SVM decision value 5 ([1]; replicate stimulation 5, 24 h at GARD input concentration, independent test dataset, > 0 = respiratory sensitizer): 0.06
10 | OCC=Cc1ccccc1 [Cinnamyl alcohol] | −0.57 | – | −1.26 | Non-sensitizer | solubility [3]: 500 µM (≈ 67.1 µg/mL)
11 | CCOC(=O)c1ccccc1C(=O)OCC [Diethyl phthalate] | −1.37 | −0.96 | −1.22 | Non-sensitizer | –
12 | C=CCc1ccc(O)c(OC)c1 [Eugenol] | −1.67 | −1.53 | −1.51 | Non-sensitizer | Rv90 (MUTZ-3 cells; concentration yielding 90% relative viability, MUTZ-3, independent test dataset): 300 µM
13 | C=O [Formaldehyde] | – | – | – | – | Rv90 (MUTZ-3 cells): 80 µM
14 | O=CCCCC=O [Glutaraldehyde] | – | – | – | – | Rv90 (MUTZ-3 cells; [9]): 10 µM; Up-regulation of CD86 in comparison to unstimulated cells [2]: statistically significant
15 | OCC(O)CO [Glycerol] | −1.05 | −1.11 | −0.77 | Non-sensitizer | –
16 | O=CC=O [Glyoxal] | −1.02 | −0.69 | −0.56 | Non-sensitizer | Rv90 (MUTZ-3 cells): 300 µM
17 | O=C=NCCCCCCN=C=O [Hexamethylen diisocyanate] | – | – | – | – | solubility (physchem): 100 µM (≈ 16.8 µg/mL)
18 | CC(O)C(=O)O (centres unmarked) [Lactic acid] | −1.20 | −0.81 | −0.89 | – | –
19 | O=C=Nc1ccc(Cc2ccc(N=C=O)cc2)cc1 [Methylene diphenol diisocyanate] | – | – | – | – | Max solubility [3, 10]: 50 µM
20 | CCCCCCCC(=O)O [Octanoic acid] | −0.65 | −0.79 | −1.22 | Non-sensitizer | –
21 | Oc1ccccc1 [Phenol] | – | – | – | – | Classification, Pos if 1 sample > 0 [1]: Non-sensitizer; SVM decision value 1 ([1]; human): −1.04; SVM decision value 2 ([1]; human): −0.38; SVM decision value 3 ([1]; human): −0.95
22 | O=C1OC(=O)c2ccccc21 [Phtalic Anhydride] | 0.20 | −0.12 | – | Sensitizer | Max solubility ([3]; chemicals of the independent test dataset): 200 µM; Max solubility [3, 10]: 200 µM
23 | C1CNCCN1 [Piperazine] | −0.05 | −0.12 | – | Non-sensitizer | Prediction in the GARD assay (skin sensitization) [4]: accurately predicted as skin sensitizers; GRPS prediction compared with true identity ([1]; validation using the independent dataset): false negatives
24 | Oc1cccc(O)c1 [Resorcinol] | −1.01 | −0.99 | −1.40 | Non-sensitizer | –
25 | O=C(O)c1ccccc1O [Salicylic acid] | −0.73 | −1.08 | −1.13 | Non-sensitizer | –
26 | CCCCCCCCCCCCOS(=O)(=O)[O-].[Na+] [Sodium dodecyl sulphate] | – | – | – | – | Rv90 (MUTZ-3 cells): 200 µM; Classification, Pos if 1 sample > 0 [1]: Non-sensitizer; SVM decision value 1 [1]: −1.49; SVM decision value 2 [1]: −0.80; SVM decision value 3 [1]: −1.30
27 | Cc1ccc(N=C=O)cc1N=C=O [Toluendiisocyanate] | – | – | – | – | solubility (physchem): 40 µM (≈ 6.97 µg/mL)
28 | O=C(O)c1ccc2c(c1)C(=O)OC2=O [Trimellitic anhydride] | – | – | – | – | solubility [3]: 150 µM (≈ 28.8 µg/mL)
29 | O=C(O)c1ccc(O)cc1 [p-hydroxybenzoic acid] | −0.81 | −0.56 | −1.09 | Non-sensitizer | –
30 | Nc1ccc(N)cc1 [p-phenylenediamine] | −1.38 | −1.19 | −1.80 | Non-sensitizer | Rv90 (MUTZ-3 cells): 75 µM
